Data as given in the supplement of paper PMC10307832.

Tests used:
Experiment in all cases: relative viability (nuclei count vs DMSO), 5 days (fraction); higher = more cells survive
[1] = compound: C[C@]1(c2nc3c(C(N)=O)cccc3[nH]2)CCCN1 [Veliparib] + Cc1nc(Nc2ncc(C(=O)Nc3c(C)cccc3Cl)s2)cc(N2CCN(CCO)CC2)n1 [Dasatinib] (partner 0.075 µM)
Procedure, shortened: (§1)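 Each reported value is a median over duplicate plates. It expresses relative viability: treated-well nuclei count divided by vehicle-well nuclei count. Lung cancer cell lines in 1536-well plates were dosed by pin tool a day after seeding, alone with one drug or with a fixed anchor-drug dose plus five library-drug doses (not always all listed) in √10 steps, and nuclei were counted after 5 days.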

[2] = compound: COC1=CC=C(C=C1)CN2C=CC3=C2C=C(C=C3)C(=O)NO + C[C@@H](Oc1cc(-c2cnn(C3CCNCC3)c2)cnc1N)c1c(Cl)ccc(F)c1Cl [Crizotinib] (partner 1 µM)
Procedure, shortened: as §1

[3] = compound: C[C@]1(c2nc3c(C(N)=O)cccc3[nH]2)CCCN1 [Veliparib] + CC1(C)CCC(c2ccc(Cl)cc2)=C(CN2CCN(c3ccc(C(=O)NS(=O)(=O)c4ccc(N[C@H](CCN5CCOCC5)CSc5ccccc5)c(S(=O)(=O)C(F)(F)F)c4)cc3)CC2)C1 [Navitoclax] (partner 0.5 µM)
Procedure, shortened: as §1

[4] = compound: C[C@]1(c2nc3c(C(N)=O)cccc3[nH]2)CCCN1 [Veliparib] + CCNC(=O)c1noc(-c2cc(C(C)C)c(O)cc2O)c1-c1ccc(CN2CCOCC2)cc1 [Luminespib] (partner 0.01 µM)
Procedure, shortened: as §1

| Cell Line | relative viability ([1]; first compound 0.02 µM) | relative viability ([1]; first compound 0.06325 µM) | relative viability ([1]; first compound 0.2 µM) | relative viability ([1]; first compound 0.6325 µM) | relative viability ([1]; first compound 2 µM) | relative viability ([2]; first compound 0.253 µM) | relative viability ([2]; first compound 0.8 µM) | relative viability ([2]; first compound 2.53 µM) | relative viability ([2]; first compound 8 µM) | relative viability ([3]; first compound 0.02 µM) | relative viability ([3]; first compound 0.06325 µM) | relative viability ([3]; first compound 0.2 µM) | relative viability ([3]; first compound 0.6325 µM) | relative viability ([3]; first compound 2 µM) | relative viability ([2]; first compound 0.08 µM) | relative viability ([4]; first compound 0.02 µM) | relative viability ([4]; first compound 0.06325 µM) | relative viability ([4]; first compound 0.2 µM) | relative viability ([4]; first compound 0.6325 µM) | relative viability ([4]; first compound 2 µM) |
| --- | --- | --- | --- | --- | --- | --- | --- | --- | --- | --- | --- | --- | --- | --- | --- | --- | --- | --- | --- | --- |
| HCC-366 | 0.524 | 0.514 | 0.582 | 0.572 | 0.588 | 0.476 | 0.534 | 0.413 | 0.352 | 1.09 | 1.01 | 0.968 | 0.942 | 1.1 | – | – | – | – | – | – |
| HCC-827 | 0.362 | 0.302 | 0.266 | 0.205 | 0.364 | 0.968 | 0.898 | 0.961 | 0.878 | 1.03 | 0.937 | 0.971 | 0.944 | 1.02 | 0.87 | 0.468 | 0.692 | 0.654 | 0.493 | 0.588 |
| HOP-62 | 0.634 | 0.549 | 0.705 | 0.648 | 0.651 | 0.833 | 1.01 | 1.01 | 0.959 | 1.05 | 1 | 1.06 | 0.937 | 1.03 | 0.826 | 0.831 | 0.858 | 0.783 | 0.669 | 0.836 |
| IA-LM | – | – | – | – | – | 0.806 | 0.834 | 1.02 | 0.694 | 0.939 | 0.697 | 0.755 | 0.697 | 0.94 | 0.618 | – | – | – | – | – |
| LC-2-ad | – | 0.423 | 0.669 | 0.556 | 0.388 | 0.531 | 0.467 | 0.408 | 0.397 | – | 0.446 | 0.405 | 0.312 | 0.497 | 0.33 | – | 0.947 | 1.04 | 0.982 | 1.03 |
| LCLC-97TM1 | 0.848 | 0.845 | 0.895 | 0.653 | 0.864 | 0.285 | 0.395 | 0.259 | 0.237 | 0.425 | 0.32 | 0.387 | – | 0.476 | – | 0.729 | 0.729 | 0.884 | 0.671 | 0.678 |
| LCLC-103H | 0.5 | 0.469 | 0.449 | 0.495 | 0.482 | 0.94 | 1.15 | 0.984 | 1.02 | – | – | – | – | – | 1.1 | 0.987 | 0.888 | 1.04 | 0.907 | 0.992 |
| LK-2 | – | 0.266 | 0.258 | 0.325 | 0.291 | 0.256 | 0.258 | 0.255 | 0.226 | 0.713 | 0.876 | 1.24 | 0.831 | 0.823 | – | – | 0.184 | 0.202 | 0.19 | 0.193 |
| LOU-NH91 | 0.529 | 0.522 | 0.537 | 0.544 | 0.53 | 0.738 | 0.752 | 0.763 | 0.704 | 0.539 | 0.643 | 0.672 | 0.689 | 0.703 | 0.693 | 0.339 | 0.401 | 0.352 | 0.285 | 0.342 |
| LU99A | 0.592 | 0.51 | 0.612 | 0.517 | 0.431 | 0.573 | 0.541 | 0.562 | 0.553 | 0.761 | 0.779 | 0.832 | 0.657 | 0.863 | – | 0.284 | 0.25 | 0.191 | 0.228 | 0.237 |
| NCI-H358 | 0.0991 | 0.156 | 0.169 | 0.131 | 0.152 | 0.645 | 0.546 | 0.597 | 0.395 | – | – | – | – | – | – | 0.308 | 0.975 | 0.248 | 0.246 | 0.548 |
| NCI-H522 | 0.887 | 0.904 | 0.963 | 0.831 | 0.812 | – | – | – | – | – | – | – | – | – | – | 1.18 | 1.21 | 1.16 | 1.18 | 1.25 |
| NCI-H650 | 0.378 | 0.372 | 0.414 | 0.369 | 0.423 | 0.832 | 0.68 | 0.71 | 0.656 | – | – | – | – | – | 0.378 | 0.768 | 0.708 | 0.652 | 0.721 | 0.797 |
| NCI-H661 | 0.886 | 0.846 | 0.777 | 0.86 | 0.869 | 0.814 | 1.08 | 1.05 | 1 | – | – | – | – | – | – | 0.863 | 0.931 | 0.839 | 0.785 | 0.934 |
| NCI-H1299 | – | – | – | – | – | 0.978 | 0.967 | 0.943 | 0.959 | 1.06 | 0.989 | 1.03 | 0.996 | 1.07 | 0.947 | – | – | – | – | – |
| NCI-H1395 | 0.379 | 0.381 | 0.46 | 0.414 | 0.437 | – | – | – | – | – | 1.05 | 1.01 | 1.11 | 0.899 | – | 0.586 | 0.624 | 0.648 | 0.659 | 0.542 |
| NCI-H1563 | 0.462 | 0.474 | 0.4 | 0.491 | 0.482 | 0.847 | 0.957 | 0.921 | 0.943 | – | – | – | – | – | 0.718 | 0.484 | 0.536 | 0.526 | 0.49 | 0.535 |
| NCI-H1623 | – | 0.458 | 0.598 | 0.524 | 0.462 | – | – | – | – | – | – | – | – | – | – | – | 0.467 | 0.596 | 0.434 | 0.409 |
| NCI-H1703 | – | – | – | – | – | 0.552 | 0.619 | 0.637 | 0.72 | 1.62 | 0.849 | 1.08 | 0.977 | 1.29 | 0.158 | – | – | – | – | – |
| NCI-H1793 | 0.398 | 0.448 | 0.408 | 0.277 | 0.448 | – | – | – | – | 0.435 | 0.602 | 0.424 | 0.376 | 0.396 | – | 0.196 | 0.174 | 0.177 | 0.169 | 0.181 |
| NCI-H2342 | 0.293 | 0.297 | 0.299 | 0.321 | 0.288 | – | – | – | – | – | – | – | – | – | – | 0.687 | 0.729 | 0.594 | 0.972 | 0.666 |
| SW 900 | – | – | 0.538 | 0.644 | 0.696 | – | – | – | – | – | – | – | – | – | – | – | – | 0.204 | 0.19 | 0.118 |
